For the experiment, the target named is T1, recombinant human NaV1.8 stably transfected HEK cells (Homo sapiens, UniProt Q9Y5Y9).
T1 construct: expressed in transfected cells; host or cells: HEK cells, stably transfected
As to the kind of experiment: Compound profiling on NaV1.8, human NaV1.8 cell line, SyncroPatch384PE automated patch clamp assay (Example 102, first set of compounds, Table 16). The format is cell-based. To be noted: human NaV1.8 HEK cells, Table 16 (first set of compounds). In short, it runs like this:
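IC50s come from two read-outs: resting-state block (P1, 10 mV step from −120 mV) and inactivated-state block (P2, after 10 s at −40 mV), scaled between DMSO and 250 μM tetracaine. Compounds (20–0.001 μM final, 1:3 steps) were applied for 5 min, 15 s sweeps. Cells kept at 30 °C the day before.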

Setting [1] is: inactivated state block (P2 measurement), read-out: P2IC50.
Setting [2] is: resting state block (P1 measurement), read-out: P1IC50.

Where two headings read alike, the source gives them in different places.

T1 sequence (Q9Y5Y9 whole entry): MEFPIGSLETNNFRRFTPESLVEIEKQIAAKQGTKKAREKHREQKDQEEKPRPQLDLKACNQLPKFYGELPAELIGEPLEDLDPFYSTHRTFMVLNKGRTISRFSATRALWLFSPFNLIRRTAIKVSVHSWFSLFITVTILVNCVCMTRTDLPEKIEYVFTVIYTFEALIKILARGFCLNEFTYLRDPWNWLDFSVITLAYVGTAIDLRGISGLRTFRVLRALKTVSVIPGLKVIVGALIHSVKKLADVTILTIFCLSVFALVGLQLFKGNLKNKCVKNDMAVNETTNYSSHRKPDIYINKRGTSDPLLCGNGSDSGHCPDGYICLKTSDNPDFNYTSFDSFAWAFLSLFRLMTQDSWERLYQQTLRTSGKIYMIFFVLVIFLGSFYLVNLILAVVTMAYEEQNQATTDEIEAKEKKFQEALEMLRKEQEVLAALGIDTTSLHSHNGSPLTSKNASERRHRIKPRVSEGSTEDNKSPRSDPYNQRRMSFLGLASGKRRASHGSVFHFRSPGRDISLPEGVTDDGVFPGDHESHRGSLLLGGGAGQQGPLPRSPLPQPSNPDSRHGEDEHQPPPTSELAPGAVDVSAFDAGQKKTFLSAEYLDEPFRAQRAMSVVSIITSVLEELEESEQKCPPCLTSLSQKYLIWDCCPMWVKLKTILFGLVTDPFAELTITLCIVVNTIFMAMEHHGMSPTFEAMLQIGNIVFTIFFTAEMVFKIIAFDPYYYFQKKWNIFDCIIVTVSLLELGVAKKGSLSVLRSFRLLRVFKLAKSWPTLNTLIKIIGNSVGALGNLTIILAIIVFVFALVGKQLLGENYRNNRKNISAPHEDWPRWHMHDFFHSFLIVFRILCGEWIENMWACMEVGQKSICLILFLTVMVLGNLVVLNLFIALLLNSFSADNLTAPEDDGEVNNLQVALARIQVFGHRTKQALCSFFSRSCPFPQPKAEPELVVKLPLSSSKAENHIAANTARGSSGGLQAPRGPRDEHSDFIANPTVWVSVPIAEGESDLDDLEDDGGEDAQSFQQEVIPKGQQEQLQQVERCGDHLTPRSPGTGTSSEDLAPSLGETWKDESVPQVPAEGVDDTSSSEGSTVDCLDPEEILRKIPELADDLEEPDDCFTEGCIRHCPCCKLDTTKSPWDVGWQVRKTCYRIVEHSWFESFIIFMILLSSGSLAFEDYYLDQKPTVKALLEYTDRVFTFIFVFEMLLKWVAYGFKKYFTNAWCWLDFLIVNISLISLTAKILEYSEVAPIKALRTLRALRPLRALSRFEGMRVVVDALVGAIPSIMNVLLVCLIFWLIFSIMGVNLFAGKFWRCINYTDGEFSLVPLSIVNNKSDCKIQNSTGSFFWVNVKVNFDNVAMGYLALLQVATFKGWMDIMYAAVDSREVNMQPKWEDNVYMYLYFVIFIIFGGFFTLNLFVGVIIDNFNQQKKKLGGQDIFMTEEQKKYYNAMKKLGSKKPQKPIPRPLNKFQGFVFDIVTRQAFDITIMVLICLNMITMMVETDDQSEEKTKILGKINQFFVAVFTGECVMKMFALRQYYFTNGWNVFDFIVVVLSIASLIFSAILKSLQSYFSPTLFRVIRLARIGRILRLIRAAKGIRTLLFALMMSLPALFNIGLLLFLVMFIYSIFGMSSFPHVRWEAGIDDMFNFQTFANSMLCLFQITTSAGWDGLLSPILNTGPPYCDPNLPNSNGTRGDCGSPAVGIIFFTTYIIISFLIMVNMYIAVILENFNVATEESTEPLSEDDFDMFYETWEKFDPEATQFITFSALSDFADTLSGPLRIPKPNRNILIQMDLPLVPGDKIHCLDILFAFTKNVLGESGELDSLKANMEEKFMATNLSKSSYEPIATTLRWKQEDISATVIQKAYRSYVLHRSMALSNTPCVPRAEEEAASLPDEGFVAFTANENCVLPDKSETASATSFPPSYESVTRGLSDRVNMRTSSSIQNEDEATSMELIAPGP

As to `COc1cc(C#N)ccc1Oc1nnc(C2=CCN(C(C)=O)CC2)c(C)c1C(=O)Nc1cccc(S(C)(=N)=O)c1` (stereo not shown) [Compound 1554, 6-(1-acetyl-3,6-dihydro-2H-pyridin-4-yl)-3-(4-cyano-2-methoxy-phenoxy)-5-methyl-N-[3-(methylsulfonimidoyl)phenyl]pyridazine-4-carboxamide], the IC50 under setting [1] fell in the range of 200 to 500 nM and the IC50 under setting [2] lay within 200 to 500 nM.
For the molecule `CCOc1ccc(Oc2ncc(C(F)(F)F)cc2C(=O)Nc2cccc(S(C)(=N)=O)c2)cc1` (stereo not shown) [Compound 1609], the IC50 lay within 40 to 200 nM under setting [1] and 40 to 200 nM under setting [2].
As to `CS(=O)(=O)c1cccc(NC(=O)c2cc(C(F)(F)F)cnc2Oc2ccc3c(c2)CC(=O)N3)c1` [Compound 1598], the IC50 under setting [1] lay in the range of 200 to 500 nM and the IC50 under setting [2] was in the range of 200 to 500 nM.
`Cc1cc(Br)ccc1Oc1nnc(C(F)(F)F)c(C)c1C(=O)Nc1ccc(C(N)=O)cc1` [Compound 1402]: the IC50 was 20 to 40 nM under setting [1] and 20 to 40 nM under setting [2].
In the case of `Cc1nc(C#N)ccc1Oc1ncc(C(F)(F)F)cc1C(=O)Nc1cccc(C(N)=O)c1` [Compound 1700], the IC50 runs as follows: under setting [1], 200 to 500 nM; under setting [2], 200 to 500 nM.
`Cc1nc(OC2CCC2)ccc1Oc1ncc(C(F)(F)F)cc1C(=O)Nc1cccc(C(N)=O)c1` [Compound 1565, N-(3-carbamoylphenyl)-2-[[6-(cyclobutoxy)-2-methyl-3-pyridyl]oxy]-5-(trifluoromethyl)pyridine-3-carboxamide]: the IC50 runs as follows: under setting [1], 200 to 500 nM; under setting [2], 200 to 500 nM.
Turning to `Cc1nn(C)cc1Oc1ncc(C(F)(F)F)cc1C(=O)Nc1cccc(S(C)(=N)=O)c1` (stereo not shown) [Compound 1590], the IC50 under setting [1] was in the range of 200 to 500 nM and the IC50 under setting [2] was in the range of 200 to 500 nM.
As to `Cc1c(C(F)(F)F)nnc(Oc2ccc(OC(C)C)c(F)c2F)c1C(=O)Nc1cccc(S(C)(=N)=O)c1` (single isomer, unassigned) [Compound 1502, 3-(2,3-difluoro-4-isopropoxyphenoxy)-5-methyl-N-(3-(S-methylsulfonimidoyl)phenyl)-6-(trifluoromethyl)pyridazine-4-carboxamide], the IC50 was not above 20 nM under setting [1] and not above 20 nM under setting [2].
As for `Cc1cc(F)ccc1Oc1nnc(C#N)c(C)c1C(=O)Nc1cccc(S(C)(=N)=O)c1` (stereo not shown) [Compound 1432, 6-cyano-3-(4-fluoro-2-methyl-phenoxy)-5-methyl-N-[3-(methylsulfonimidoyl)phenyl]pyridazine-4-carboxamide], the IC50 is, setting by setting: under setting [1], 200 to 500 nM; under setting [2], 200 to 500 nM.
Take `COc1cc(C#N)ccc1Oc1ncc(Br)cc1C(=O)Nc1cccc(S(C)(=N)=O)c1` (stereo not shown) [Compound 1686]: the IC50 was not above 20 nM under setting [1] and not above 20 nM under setting [2].
Regarding `Cc1c(C(F)(F)F)nnc(Oc2ccc(C#N)cc2)c1C(=O)Nc1cccc(S(C)(=N)=O)c1` (stereo not shown) [Compound 21], the IC50 fell in the range of 40 to 200 nM under setting [1] and 20 to 40 nM under setting [2].
On to `Cc1cc(F)ccc1Oc1ncc(Br)c(C)c1C(=O)Nc1cccc([S@](C)(=N)=O)c1` [Compound 1731, (R)-5-bromo-2-(4-fluoro-2-methylphenoxy)-4-methyl-N-(3-(S-methylsulfonimidoyl)phenyl)nicotinamide], for which the IC50 was not above 20 nM under setting [1] and not above 20 nM under setting [2].
For the molecule `Cc1nc(F)ccc1Oc1ncc(C(F)(F)F)cc1C(=O)Nc1cccc(S(C)(=N)=O)c1` (stereo not shown) [Compound 1589], the IC50 lay within 40 to 200 nM under setting [1] and 40 to 200 nM under setting [2].
Take `CS(=O)(=O)c1cccc(NC(=O)c2cc(C(F)(F)F)cnc2Oc2ccc(OC(F)(F)F)cc2F)c1` [Compound 1661]: the IC50 runs as follows: under setting [1], not above 20 nM; under setting [2], not above 20 nM.
For the molecule `Cc1cc(F)ccc1Oc1nnc(C(F)(F)F)c(-c2ccccc2)c1C(=O)Nc1cccc([S@@](C)(=N)=O)c1` [Compound 1520, (S)-3-(4-fluoro-2-methylphenoxy)-N-(3-(S-methylsulfonimidoyl)phenyl)-5-phenyl-6-(trifluoromethyl)pyridazine-4-carboxamide], the IC50 is, setting by setting: under setting [1], 200 to 500 nM; under setting [2], 200 to 500 nM.
With `Cc1c(Oc2nnc(C(F)(F)F)c(C)c2C(=O)Nc2cccc(S(C)(=N)=O)c2)ccc(OC(F)(F)F)c1F` (stereo not shown) [Compound 1515, 3-[3-fluoro-2-methyl-4-(trifluoromethoxy)phenoxy]-N-{3-[imino(methyl)oxo-λ^6-sulfanyl]phenyl}-5-methyl-6-(trifluoromethyl)pyridazine-4-carboxamide], the IC50 reads like this: under setting [1], not above 20 nM; under setting [2], not above 20 nM.
Take `CS(=N)(=O)c1cccc(NC(=O)c2cc(C(F)(F)F)cnc2Oc2ccc(OC(F)F)c(F)c2)c1` (stereo not shown) [Compound 1644]: the IC50 runs as follows: under setting [1], not above 20 nM; under setting [2], not above 20 nM.
Consider `Cc1cc(F)ccc1Oc1nnc(C(F)(F)F)c(C)c1C(=O)Nc1cccc(C(N)=O)c1` [Compound 1406], for which the IC50 is, setting by setting: under setting [1], 40 to 200 nM; under setting [2], 40 to 200 nM.
For the molecule `CC(C)Oc1ccc(Oc2ncc(C(F)(F)F)cc2C(=O)Nc2cccc(S(C)(=N)=O)c2)cc1F` (stereo not shown) [Compound 1647], the IC50 is not above 20 nM under setting [1] and not above 20 nM under setting [2].
As to `CS(=O)(=O)c1cccc(NC(=O)c2cc(C(F)(F)F)cnc2Oc2cccc(OC(F)(F)F)c2)c1` [Compound 1657], the IC50 fell in the range of 200 to 500 nM under setting [1] and 200 to 500 nM under setting [2].
`CS(=O)(=O)c1cccc(NC(=O)c2cc(C(F)(F)F)cnc2Oc2cnc(Cl)c3ccccc23)c1` [Compound 1582]: the IC50 fell in the range of 200 to 500 nM under setting [1] and 200 to 500 nM under setting [2].
As to `Cc1c(C(F)(F)F)nnc(Oc2ccc(C(N)=O)cc2)c1C(=O)Nc1cccc(S(C)(=N)=O)c1` (stereo not shown) [Compound 1513, 3-(4-carbamoylphenoxy)-N-{3-[imino(methyl)oxo-λ^6-sulfanyl]phenyl}-5-methyl-6-(trifluoromethyl)pyridazine-4-carboxamide], the IC50 was in the range of 200 to 500 nM under setting [1] and 200 to 500 nM under setting [2].
On to `COc1cc(C#N)ccc1Oc1nnc(-c2cnc(C(F)(F)F)s2)c(C)c1C(=O)Nc1cccc(S(C)(=N)=O)c1` (stereo not shown) [Compound 1459, 3-(4-cyano-2-methoxy-phenoxy)-5-methyl-N-[3-(methylsulfonimidoyl)phenyl]-6-[2-(trifluoromethyl)thiazol-5-yl]pyridazine-4-carboxamide], for which the IC50 by setting is: under setting [1], not above 20 nM; under setting [2], not above 20 nM.
With `COc1cc(C#N)ccc1Oc1nnc(C(F)(F)F)c(C)c1C(=O)Nc1cccc([S@](C)(=N)=O)c1` (single isomer, unassigned) [Compound 1480], the IC50 is not above 20 nM under setting [1] and not above 20 nM under setting [2].
Take `COc1cc(C#N)ccc1Oc1nnc(-c2ccc(C#N)cc2)c(C)c1C(=O)Nc1ccc[n+]([O-])c1` [Compound 1527, 3-(4-cyano-2-methoxy-phenoxy)-6-(4-cyanophenyl)-5-methyl-N-(1-oxidopyridin-1-ium-3-yl)pyridazine-4-carboxamide]: the IC50 reads like this: under setting [1], 20 to 40 nM; under setting [2], 20 to 40 nM.
`COc1c(Oc2nnc(C)c(C)c2C(=O)Nc2cccc(S(C)(=N)=O)c2)ccc(F)c1F` (stereo not shown) [Compound 1435, 3-(3,4-difluoro-2-methoxyphenoxy)-5,6-dimethyl-N-(3-(S-methylsulfonimidoyl)phenyl)pyridazine-4-carboxamide]: the IC50 by setting is: under setting [1], 200 to 500 nM; under setting [2], 200 to 500 nM.

Source of the values: patent US20240336574A1 (LATIGO BIOTHERAPEUTICS, INC., priority 2021, published 2024).
